Assay results taken from paper PMC3152597 (Bioorganic & medicinal chemistry, 2011).
Entries after “also recorded” stand apart in the source; their conditions may differ.

Legend:
[1] = test system: two melanoma (A375, WM164) and four prostate cancer cell lines (LNCaP, PC-3, Du 145, PPC-1); experiment: Antiproliferative activity, all six cancer cell lines together; assay type: cell-based, human; conditions: for fold decrease in potency compared with parent compound: average IC50 versus parent ABI-I compound (1a, 1c); for IC50: Homo sapiens, read-out: IC50 values (range over the cancer cell lines)
[2] = test system: nonresistant cancer cell lines; experiment: Antiproliferative activity, nonresistant cancer cell lines; assay type: cell-based; conditions: Homo sapiens, read-out: potency on nonresistant cancer cell lines (range)
[3] = test system: MDR cancer cell lines; experiment: Antiproliferative activity, MDR cancer cell lines; assay type: cell-based; conditions: Homo sapiens, read-out: potency on resistant (MDR) cancer cell lines (range)
[4] = In vitro metabolic stability, dog liver microsomes; assay type: in vitro ADME
[5] = test system: Bovine brain tubulin; experiment: In vitro microtubule polymerization assay; assay type: biochemical; conditions: after 15 min, absorbance at 340 nm, 37 °C
[6] = In vitro metabolic stability, rat liver microsomes; conditions: 50 µM; LC-MS/MS metabolite identification
[7] = In vitro metabolic stability, human liver microsomes; conditions: 50 µM; LC-MS/MS metabolite identification
[8] = In vitro metabolic stability, mouse liver microsomes; conditions: 50 µM; LC-MS/MS metabolite identification
[9] = test system: PC-3-TxR; experiment: Antiproliferative activity, paclitaxel-resistant PC-3-TxR; assay type: cell-based, human; conditions: IC50 on PC-3-TxR divided by IC50 on PC-3
[10] = test system: DU145-TxR; experiment: Antiproliferative activity, paclitaxel-resistant DU145-TxR; assay type: cell-based, human

Question: With `COc1cc(C(=O)c2c[nH]c(-c3ccc(C)cc3)n2)cc(OC)c1O` [2a, (4-Hydroxy-3,5-dimethoxyphenyl)(2-(p-tolyl)-1H-imidazol-4-yl)methanone] as the compound, how does the “fold decrease in potency compared with parent compound” value (“fold decrease in potency” for short) [1] read?
Answer: The value was 10-to 20 fold.

Question: For `COc1cc(C(=O)c2c[nH]c(-c3ccc(Cl)cc3)n2)cc(OC)c1O` [2c, (2-(4-Chlorophenyl)-1H-imidazol-4-yl)(4-hydroxy-3,5-dimethoxyphenyl)methanone], which “fold decrease in potency” value [1] is on record?
Answer: The value was 10-to 20 fold.

Question: Which “fold decrease in potency” value [1] does the source give for `COc1cc(C(=O)c2cn(Cc3ccccc3)c(-c3ccc(C)cc3)n2)cc(OC)c1OC` [3aa, (1-Benzyl-2-(p-tolyl)-1H-imidazol-4-yl)(3,4,5-trimethoxyphenyl)methanone] here?
Answer: The value was 90 fold.

Question: For `COc1cc(C(=O)c2cn(C)c(-c3ccc(C)cc3)n2)cc(OC)c1OC` [3ab], which IC50 [2] is on record?
Answer: The IC50 was 50 to 80 nM.

Question: And the IC50 [3]?
Answer: Its IC50 is 50 to 80 nM.

Question: And the “half-life in dog liver microsomes (in words)” value ([4]; 0.5 µM compound, 1 mg/mL microsomal protein, 37 °C)?
Answer: The value was “slightly longer half-life than that of compound 1a”.

Question: What about the “metabolic pathway in dog liver microsomes” value ([4]; 50 µM, LC-MS/MS metabolite identification) of the same compound?
Answer: The value was “Hydroxylation on the para-methyl of the A ring was a major metabolic pathway; also recorded: O-demethylation was a minor metabolic pathway”.

Question: And the “inhibition of tubulin polymerization at 20 µM” value [5]?
Answer: The value was “Complete inhibition”.

Question: And the “metabolic pathway in rat liver microsomes” value [6]?
Answer: Its value is “N-demethylation represented the major pathway; also recorded: Hydroxylation on the para-methyl of the A ring was a major metabolic pathway; also recorded: O-demethylation was a minor metabolic pathway”.

Question: What about the “metabolic pathway in human liver microsomes” value [7] of the same compound?
Answer: The value was “Hydroxylation on the para-methyl of the A ring was a major metabolic pathway; also recorded: Ketone reduction was only detected in human liver microsomes; also recorded: O-demethylation was a minor metabolic pathway”.

Question: What about the “metabolic pathway in mouse liver microsomes” value [8] of the same compound?
Answer: Its value is “Hydroxylation on the para-methyl of the A ring was a major metabolic pathway; also recorded: O-demethylation was a minor metabolic pathway; also recorded: N-demethylation represented the major pathway”.

Question: Which results are given for `COc1cc(C(=O)c2c[nH]c(-c3ccc(Br)cc3)n2)cc(OC)c1OC` [8a, (2-(4-Bromophenyl)-1H-imidazol-4-yl)(3,4,5-trimethoxyphenyl)methanone]?
Answer: Resistance index (R) PC-3-TxR [9]: ≈ 1; Resistance index (R) DU145-TxR ([10]; IC50 on DU145-TxR divided by IC50 on Du145): ≈ 1; IC50 [2]: 50 to 80 nM; IC50 [3]: 50 to 80 nM; inhibition of tubulin polymerization at 10 µM ([5]; 10 µM): Complete inhibition; inhibition of tubulin polymerization at 20 µM [5]: Complete inhibition

Question: With `COc1cc(C(=O)c2cc3cc(F)ccc3[nH]2)cc(OC)c1OC` [12f, (5-Fluoro-1H-indol-2-yl)(3,4,5-trimethoxyphenyl)methanone] as the compound, how does the IC50 [1] read?
Answer: The IC50 was 1000 to 10000 nM.

Question: Which IC50 [1] does the source give for `COc1cc(C(=O)c2cc3ccc(Cl)cc3n2C)cc(OC)c1OC` [13aa, (6-Chloro-1-methyl-1H-indol-2-yl)(3,4,5-trimethoxyphenyl)methanone] here?
Answer: The IC50 was 1000 to 10000 nM.

Question: For `COc1cc(C(=O)c2cc3ccc(F)cc3n2C)cc(OC)c1OC` [13b, (6-Fluoro-1-methyl-1H-indol-2-yl)(3,4,5-trimethoxyphenyl)methanone], which IC50 [1] is on record?
Answer: The IC50 was 1000 to 10000 nM.

Question: Which IC50 ([10]; Homo sapiens, read-out: IC50±SEM DU145-TxR) does the source give for `CC(=O)O[C@H]1C(=O)[C@@]2(C)[C@H]([C@H](OC(=O)c3ccccc3)[C@]3(O)C[C@H](OC(=O)[C@H](O)[C@@H](NC(=O)c4ccccc4)c4ccccc4)C(C)=C1C3(C)C)[C@]1(OC(C)=O)CO[C@@H]1C[C@@H]2O` [Paclitaxel, reference compound] here?
Answer: Its IC50 is greater than 3000 nM.

Question: And the IC50 [3]?
Answer: Its IC50 is greater than 400 nM.
